Source: US11576416B2, “Method of producing microparticles of the type having a crosslinked, aggregated protein matrix by spray drying” (Anabio Technologies Limited, priority 2015, dated 2023)

Legend:
[1] = test system: Lb. acidophilus; experiment: Survival of probiotic bacteria during the drying process; format: cell-based; conditions: acid used as the weak acid in the mix
Excerpt: The pH of the final product will dictate the type of weak acid to be utilised.

[2] = test system: experimental animals; conditions: cited from earlier work

Row | SMILES | Viability of probiotic bacteria during the drying process [1] | Hazard to man or animals ([2]; at the level succinic acid occurs naturally in foods) | Amount tolerated by experimental animals ([2]; experimental animals)
1 | O=C1O[C@H]([C@@H](O)CO)C(O)=C1O [Ascorbic acid] | has not effect |  | 
2 | O=C(O)CCC(=O)O [succinic acid, butanedioic acid] | has not effect | no evidence that it is hazardous | several
